Measured values from patent US11872210B2, “Thiol isomerases inhibitors and use thereof” (WESTERN NEW ENGLAND UNIVERSITY, priority 2017, dated 2024).

Tests used:
[1] = system: platelets (fibrinogen receptor αIIbβ3); assay: Fibrinogen binding to αIIbβ3 by flow cytometry; format: cell-based, human
Method: (§1) Human Platelet Preparation: 50 mL of blood was drawn from drug free, consenting individuals, into a syringe containing 5 mL sodium citrate (4% w/v) and 7.5 mL warmed ACD (85 mM sodium citrate, 71 mM citric acid and 110 mM glucose). Blood was centrifuged at 102 g for 20 minutes to obtain platelet-rich plasma (PRP), which was then decanted and 104 prostacyclin (PGI2 125 μg/mL, solubilized in ethanol) added. Platelets were pelleted by centrifugation at 1413 g for 10 minutes, platelet poor plasma was discarded and the pellet resuspended in 25 mL Tyrode's-HEPES buffer (134 mM NaCl, 2.9 mM KCl, 0.34 mM Na2HPO4, 12 mM NaHCO3, 20 mM HEPES, 1 mM MgCl2 and 5 mM glucose pH 7.3), 3 mL of ACD and 10 μL PGI2 were added and then following centrifugation at 1413 g for 10 minutes, the platelet pellet was re-suspended to the appropriate cell density using Tyrode's buffer. Platelets were rested for 30 minutes at 30° C. to allow platelet responses to recover.
Flow Cytometry: 5 μL platelets (2×10^8 cells/mL) was added to 42 μL HEPES-buffered saline with 1 mM Ca2+. To this, 0.5 μL zafirlukast (0.6 μM-10 μM) or montelukast (0.6 μM-10 μM) or vehicle (0.1% (v/v) DMSO) was added and incubated for 5 minutes. 1 μL anti-human CD62p (1:500 dilution) and 1 μL anti-fibrinogen FITC conjugate (1:500 dilution) or 2 μL of anti-PAC-1 antibody were added to samples. Platelets were treated with 5 μL CRP-XL (1 ug/mL) or 5 μL Tyrode's for 20 minutes in the dark. Samples were then fixed with 450 μL of 0.2% (v/v) paraformaldehyde and analyzed on an accuri C6 flow cytometer (BD Biosciences, UK), with the threshold set to 20,000. Platelet populations were gated and 10,000 events recorded.

ERp5 = biological target: T1, ERp5 (Homo sapiens, UniProt Q15084); assay: Insulin-based turbidometric assay of thiol isomerase inhibitory activity (ERp5); format: biochemical; conditions: insulin turbidity assay, 6 point dose curve
T1 construct: purchased AbCam (Cambridge Mass.)
T1 sequence (Q15084 20-440): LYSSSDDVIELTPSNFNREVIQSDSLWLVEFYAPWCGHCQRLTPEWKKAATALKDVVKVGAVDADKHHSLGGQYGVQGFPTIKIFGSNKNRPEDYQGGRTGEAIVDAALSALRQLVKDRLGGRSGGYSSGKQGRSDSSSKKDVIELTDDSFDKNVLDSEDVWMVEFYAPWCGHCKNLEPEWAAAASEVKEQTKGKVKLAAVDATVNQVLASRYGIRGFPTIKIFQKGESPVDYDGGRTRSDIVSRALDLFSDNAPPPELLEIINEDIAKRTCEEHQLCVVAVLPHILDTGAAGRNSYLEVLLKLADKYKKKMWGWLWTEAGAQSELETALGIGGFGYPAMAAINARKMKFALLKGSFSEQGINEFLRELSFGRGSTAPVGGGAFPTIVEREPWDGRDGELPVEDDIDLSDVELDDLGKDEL
Source text: Recombinant thiol isomerases were purchased from AbCam (Cambridge Mass.), recombinant insulin (bovine), bacitracin, dithiothreitol (DTT) buffers and all other chemicals were purchased from Sigma Aldrich (St. Louis, Mo.; while 384 well clear bottom plates were purchased from Corning (Corning, N.Y.).
The catalytic reduction of insulin by thiol isomerases in the presence of DTT results in aggregation of insulin chains. The turbidity of insulin aggregation can be monitored spectrophotometrically at an optical density (OD) at 650 nm. This approach has been used by multiple groups to identify thiol isomerase inhibitors in either a kinetic or endpoint fashion. A final concentration of either 10 μg/mL PDI, 30 μg/mL ERp5, 10 μg/mL ERp72 or 10 μg/mL thioredoxin, 125 μM insulin and 2 mM ethylenediaminetetraacetic acid (EDTA) in 30 μL of 100 mM potassium phosphate buffer was added to each experimental well plate, while negative control wells lacked any thiol isomerase. Lead compounds were diluted in a 6 point dose curve and the turbidity of insulin aggregation was measured kinetically each minute for 75 minutes using a Spectramax M3 plate reader (Molecular Devices, Sunnyvale, Calif.) Specificity assay utilized the insulin turbidity assay as well.

human washed platelets = assay: Collagen stimulated platelet aggregation; format: cell-based; conditions: collagen 1 μg/mL, 3 minutes
Method: as §1
Platelet Aggregation: 445 μL of washed platelets at (4×10^8 cells/mL) were incubated for 5 minutes with vehicle (0.1% (v/v) DMSO) or 54 zafirlukast or montelukast. 50 μL of collagen 1 μg/mL (final), was added and light transmission monitored for 3 minutes at 37° C. with constant stirring (1200 rpm) using an aggregometer (Chronolog, USA).
Statistical analyses: All raw data was analyzed by 1-way ANOVA and where appropriate normalized to vehicle. GraphPad Prism was used to perform statistical analysis by ANOVA or students T test. The level of significance of p values is as follows, *p<0.05,**p<0.01, ***p<0.005. Data presented are mean+/−standard error of the mean.
Zafirlukast inhibits platelet aggregation: Human washed platelets (4×10^8 cells/mL) were pre-treated with 0.1 μM-10 μM zafirlukast or vehicle. Platelets were stimulated with collagen 1 μg/mL and allowed to aggregate for 3 minutes. Aggregation traces representative of the response were obtained and dose responses compared.

COc1cc(C(=O)NS(=O)(=O)c2ccccc2C)ccc1Cc1cn(C)c2ccc(NC(=O)OC3CCCC3)cc12 [zafirlukast, 4-(5-cyclopentyloxycarbonylamino-1-methylindol-3-ylmethyl)-3-methoxy-N-o-tolylsulfonylbenzamide]
fibrinogen binding (fluorescence) ([1]; 10 μM, CRP-XL stimulated, vehicle 12520 Au): 3696 Au | inhibition at 10 µM ([1]; Homo sapiens, Platelet, 10 μM, CRP-XL stimulated): 64.5% | fibrinogen binding (in words) ([1]; lower concentrations (below 10 μM)): trend towards inhibition | inhibitory range on ERp5 (ERp5): 10 to 300 µM | inhibition of platelet aggregation (in words) (human washed platelets; 0.1 μM): did not significantly inhibit | inhibition of platelet aggregation (in words) (human washed platelets; 0.3 μM): did not significantly inhibit | platelet aggregation, normalized to vehicle (human washed platelets; 0.6 μM): 54.8% | platelet aggregation, normalized to vehicle (human washed platelets; 1.25 μM): 54.9% | platelet aggregation, normalized to vehicle (human washed platelets; 2.5 μM): 40.00% | platelet aggregation, normalized to vehicle (human washed platelets; 5 μM): 22.47% | platelet aggregation, normalized to vehicle (human washed platelets; 10 μM): 18.1% | inhibition at 0.6 µM (human washed platelets; Homo sapiens, Platelet, 0.05 h, 0.6 μM): 45% | inhibition at 1.25 µM (human washed platelets; Homo sapiens, Platelet, 0.05 h, 1.25 μM): 45% | inhibition at 2.5 µM (human washed platelets; Homo sapiens, Platelet, 0.05 h, 2.5 μM): 60% | inhibition at 5 µM (human washed platelets; Homo sapiens, Platelet, 0.05 h, 5 μM): 77.5% | inhibition at 10 µM (human washed platelets; Homo sapiens, Platelet, 0.05 h, 10 μM): 81.9%
